Measured values reported in patent publication US6207656A, “Vitamin D analogues and their neuronal effects” (Cephalon, Inc., priority 1998, dated 2001).

Key:
[1] = system: GDNF mRNA; assay: Induction of GDNF mRNA expression in rats; assay type: in vivo, Sprague Dawley rats; conditions: 0.3, 1.0 and 3.0 μg/kg oral, 8 days; septum and hippocampus (FIG. 1)
Protocol: (§1) Young adult male Sprague Dawley rats (250-350 g) were administered Compound (A), Compound (E), or a vehicle (80% propylene glycol (human formulation grade; Spectrum Quality Products, Inc., Gardena, Calif., catalog #PR130-55003) and 20% phosphate buffer, pH 9.2) at doses ranging from 0.1 to 5.5 μg/kg daily by oral gavage for eight days. Five hours after the last dose, the animals were sacrificed by decapitation. Each brain was quickly removed and chilled in ice-cold saline. The brain was cut into 2 mm thick coronal sections. Portions of the hippocampus, encompassing the CA1 region, and the medial septum were removed by punching 2 mm^3 sections using a calibrated tissue punch. Punched sections were immediately frozen on dry ice and then stored at -70° C. RNA was prepared from dissected tissue pieces.
(§2) Punches of tissue were homogenized in […] RNAzolB™ (Bioteex Laboratories, Houston, Tex.) using a homogenizer (Tekmar, Germany) until fully homogenized and then 250 μl RNAzilB™ was added. Typically, punches from the corresponding regions of brains of 2 to 3 animals were combined together. RNA was prepared as recommended by the manufacturer (Biotecx Laboratories). […] Concentration of RNA was measured spectrophotometrically and the quality of RNA was visualized on a nondenaturing agarose gel. […]

[2] = system: NT-3 mRNA; assay: Induction of NT-3 mRNA expression in rats; assay type: in vivo, Sprague Dawley rats; conditions: 0.3, 1.0 and 3.0 μg/kg oral, 8 days; hippocampus (FIG. 1)
Protocol: as §1, §2

[3] = system: NGF mRNA; assay: Induction of NGF mRNA expression in primates; assay type: in vivo, monkey
Protocol: (§3) Twelve monkeys, ranging in weight from 2.0 Kg to 4.7 Kg, were divided into three groups of 4 animals each: the vehicle group (i.e., control), group dosed with 10 μg/kg/day, and group dosed with 30 μg/kg/clay. The monkeys were dosed orally for 8 days with Compound (A) and were sacrificed 5 hours after the last dosing. Brain regions were dissected and quick frozen. The dissected septi were divided into 3 preparations and two of the three regions of septum were analyzed. Total RNA was prepared and reverse transcribed and gene expression was assessed using polymerase chain reaction by the following procedure.
(§4) Total RNA was prepared by homogenizing sections of tissue in 750 μl RNAzolB™ (Biotecx Laboratories, Houston, Tex.) using a homogenizer (Tekmar, Germany) until fully homogenized and then 250 μl RNAzilB™ was added. RNA was prepared as recommended by the manufacturer (Biotecx Laboratories). […] Concentration of RNA was measured spectrophotometrically and the quality of RNA was visualized on a nondenaturing agarose gel. […]
(§5) An average of 4 PCR assays (two assays for each gene for two cDNA sets) were used in determining the induction of mRNA expression. To assure that PCR assays were within the linear range of the reaction, the linear range for each gene and each cDNA preparation was determined using serial dilutions of cDNAs. […]

[4] = Calcemic activity in rats, serum calcium after 7 days oral gavage; assay type: in vivo, LEW/MOL female rats; conditions: for Calcium in Serum: Table 2A (vehicle 2.46 ± 0.06), ± S.D.
Protocol: For determining calcemic activity, LEW/MOL female rats (130-170 g) were administered test compounds daily for 7 days by oral gavage. Control rats received the vehicle. Each group consisted of 3 rats. Blood was collected by cardiac puncture on day 7.

[5] = Serum calcium in fimbria fornix lesioned rats; assay type: in vivo, Sprague Dawley rats; conditions: oral gavage daily 14 days; data not shown
Protocol: For the fimbria fornix lesion studies, serum calcium was determined by the following method. Sprague Dawley rats (200-300 g) were dosed as described below. Blood was collected from the animals after sacrifice and allowed to clot at room temperature for 3-10 minutes; cells were pelleted in a clinical centrifuge.
The hippocampal ChAT activity is expressed as a percentage of the hippocampal ChAT activity of the […] control side (i.e., lesion control) in FIGS. 4 to 8.

[6] = system: GDNF mRNA; assay: Induction of GDNF mRNA expression in primates; assay type: in vivo, monkey
Protocol: as §3, §4, §5

[7] = system: ChAT producing cholinergic cells; assay: Fimbria fornix lesion model, cholinergic cell number (ChAT positive septal neurons); assay type: in vivo, rat
Protocol: Fimbria fornix lesioned animals treated orally with Compound (A) (n=10) or vehicle (n=10) were assessed using acetyl cholinesterase staining of both the lesion area and hippocampal formation. Animals received either Compound (A) (1 μg/day) or vehicle via oral gavage (14 days). […] Neurol. 284:187 (1989).
Coronal sections were cut at […] with a cryostat and collected throughout the medial septum. Every fourth section was processed for the visualization of ChAT positive neurons. Approximately 12 sections were assessed per brain. Cholinergic cells were counted and expressed as a ratio of lesioned to unlesioned control side. […] The results, presented in FIG. 9, indicate that lesioned animals treated with Compound (A) have an approximate 30% increase in the number of cholinergic cells as compared to vehicle treated lesioned animals.

For `C=C1/C(=C\C=C2/CCC[C@]3(C)[C@@H]([C@@H](C)[C@@H](C#CCC(O)(CC)CC)OCC)CC[C@@H]23)C[C@@H](O)C[C@@H]1O` [Compound (A), 1(S),3(R)-dihydroxy-20(R)-(1-ethoxy-5-ethyl-5-hydroxy-2-heptyn-1-yl)-9,10-seco-pregna-5(Z),7(E),10(19)-triene], the “production of GDNF mRNA” value [1] was “facilitated the production of NRT-like mRNA, GDNF mRNA”, the “production of NT-3 mRNA” value [2] was “facilitated the production of NRT-like mRNA, GDNF mRNA, NT-3 mRNA” and the “production of NGF mRNA” value ([3]; 10 and 30 μg/kg/day oral, 8 days, primate septum (FIG. 14A)) was “facilitated the production of NGF mRNA”. For the same compound, the “dosage of greatest NGF mRNA production” value ([3]; 10 vs 30 μg/kg/day oral) was “greatest at a dosage of 10 μg/kg/day”, the “Calcium in Serum” value ([4]; 0.1 μg/kg/day p.o.) was 2.52 ± 0.02 mmol/L and the “Calcium in Serum” value ([4]; 1.0 μg/kg/day p.o.) was 2.62 ± 0.02 mmol/L. The “Calcium in Serum column: toxicity” value ([4]; 10 μg/kg/day p.o., Table 2A) was “toxic”, the “Calcemic Activity (%)” value ([4]; rat, in vivo, po) was 24% and the calcemic classification ([4]; summary statement) was “exemplary of low calcemic vitamin D3 analogues”. For the same compound, the “serum calcium at doses giving the ChAT results” value [5] was “low calcemic dose levels”, the “production of GDNF mRNA” value ([6]; 10 and 30 μg/kg/day oral, 8 days, primate septum (FIG. 14B)) was “facilitated the production of NGF mRNA and GDNF mRNA” and the “dosage of greatest GDNF mRNA production” value ([6]; 10 vs 30 μg/kg/day oral) was “greatest at a dosage of 10 μg/kg/day”. The “increase in number of cholinergic cells vs vehicle treated lesioned animals” value ([7]; 1 μg/day oral gavage, 14 days (FIG. 9)) was roughly 30% and the “septal neurons expressing ChAT” value ([7]; FIG. 9, partially fimbria fornix lesioned animals vs vehicle) was “increase in septal neurons expressing ChAT”.
